# Source: patent US7189526B2, “Apparatus for culture, process for preparing apparatus for culture, and culturing method” (Kyokuto Pharmaceutical Industrial Co., Ltd., priority 2002, dated 2007)
# B1: IL-2: interleukin 2 (IL-2, mouse, recombinant, SIGMA I-0523) (protein, UniProt P04351 21-169, looked up)
# Interleukin-2: APTSSSTSSSTAEAQQQQQQQQQQQQHLEQLLMDLQELLSRMENYRNLKLPRMLTFKFYLPKQATELKDLQCLEDELGPLRHVLDLTQSKSFQLEDAENFISNIRVTVVKLKGSDNTFECQFDDESATVVDFLRRWIAFCQSIISTSPQ
# What was measured:
# [1] = test system: hybridoma KNA14.2; details: method of the present invention; three days; 5×10^5 cells per ml; [A(+), H(+)]
# Method: The cell culture in Example 3 was repeated except that a hybridoma suspension containing hybridoma KNA14.2 in an amount of 5×10^5 per ml was used instead of the hybridoma suspension containing that hybridoma in an amount of 1×10^6 per ml.
# Three days after the culture was started, states of cells that were cultured in a RPMI1640 medium solution containing aminopterin and serum ([A(+), H(−)]) and that were cultured in a RPMI1640 medium solution containing aminopterin, HT supplements, and serum ([A(+), H(+)]) were photographed under a microscope (magnification: ×200).
# FIGS. 17 and 18 show cells that were cultured in the RPMI1640 medium solution containing aminopterin and serum ([A(+), H(−)]) and cells that were cultured in the RPMI1640 medium solution containing aminopterin, HT supplements, and serum ([A(+), H(+)]), respectively, by the method of the present invention (culture in a hollow that was formed in a gel).
# [2] = test system: hybridoma KNA14.2; experiment: Inhibition against cell proliferation by aminopterin and its compensation by hypoxantin, amount of LDH of living cells; assay type: cell-based; details: for level of compensation of inhibition against cell proliferation by aminopterin: four days' culture, 1×10^5 cells per ml; for compensation of inhibition against cell proliferation by aminopterin: six days' culture, low hypoxantin concentration [A(+), H(0.1+)]
# Method: In a medium bottle, 0.2 g of Agarose (Takara, L 03 “TaKaRa”) was suspended in 20 ml of ultrapure water (concentration: 1 w/v %). Then, to dissolve the agarose the suspension was heated at 121° C. for 15 minutes in an autoclave (Tomy Seiko, SS-320). A bottle containing the thus-obtained agarose solution was immersed in a water incubator set at 41° C. and the agarose solution was cooled to be 41° C.
# While, 10.4 g of a powdery GIBCO™ Medium RPMI 1640 (INVITROGEN CORPORATION, Cat. No. 31800-014) was dissolved in 500 ml of ultrapure water (concentration: about twice the final concentration). This solution was sterilized by making the solution pass through a nitrocellulose filter membrane having a pore size of 0.2 μm. Thus, 2×RPMI 1640 medium solution was prepared.
# To 100 ml of the 2×RPMI 1640 medium solution, 100 ml of heat-inactivated bovine fetal serum was added under a aseptic condition. The thus-obtained heat-inactivated bovine fetal serum/2×RPMI 1640 medium solution was poured into four sterile bottles in an amount of 30 ml per bottle. The sterile bottles were immersed in a water incubator set at 41° C. and the medium solutions therein were heated to be 41° C.
# The concentration of aminopterin became twice that in the HAT medium.
# The concentrations of hypoxanthine and thymidine became twice those in the HAT medium.
# To a medium solution containing aminopterin in another sterile bottle, the HT supplements were added in amounts such that their total volume is one-five hundredth ( 1/500) of the total volume of the medium solution containing aminopterin and the HT supplements. The concentrations of hypoxanthine and thymidine became one-fifth of those in a HAT medium. The sterile bottles were continuously heated at 41° C.
# Then, at 41° C., 20 ml of the 1 w/v % agarose solution was mixed with 20 ml of medium solution No. 3 under an aseptic condition. By this, concentrations of the culture medium components of RPMI 1640 medium, heat-inactivated bovine fetal serum, aminopterin, and HT supplements, each of which had been prepared in an concentration of twice the final concentration, became one half of their concentrations in medium solution No. 3.
# While, 10 ml of ultrapure water which had been sterilized by filtration was added to 10 ml of medium solution No. 3. […] This solution was used as a control solution.
# After the mixed solution was poured into the wells, the culture plate was left cooling down for 60 minutes or more under room temperatures. Thus, the mixed solution was gelatinized. Hereafter, the gelatinized mixed solution will be designated as “an aminoprerin/HT-containing agarose gel.”
# In each well the layer of the aminoprerin/HT-containing agarose gel was punched out in its center by using a biopsy punch having a diameter of 6 mm to form a hollow.
# Into each of the thus-formed hollows, 0.17 ml of the culture medium solution not containing agarose (i.e., the control solution) was poured.
# [3] = Diffusion or elution of trypan blue from trypan blue-containing agarose gel to PBS in a hollow; assay type: physicochemical; details: 0.5 w/v % agarose gel, 37° C., absorbance at 550 nm
# Method: To 5 ml of distilled water, 0.05 g of agarose (Takara, L 03 “TaKaRa”) was suspended (concentration: 1 w/v %). Then, to dissolve the agarose the suspension was heated at 121° C. for 15 minutes in an autoclave (Tomy Seiko, SS-320). A bottle containing the thus-obtained agarose solution was immersed in a water incubator set at 41° C. and the agarose solution was cooled to be 41° C.
# While, a 0.3% trypan blue-containing 2×PBS solution (phosphate buffered saline, 2×PBS) was prepared. This solution was sterilized by making the solution pass through a nitrocellulose filter membrane having a pore size of 0.2 μm. A bottle containing the sterilized 0.3% trypan blue-containing 2×PBS solution was immersed in a water incubator set at 41° C. and the solution was heated to be 41° C. […]
# At appropriate time intervals, 0.02 ml of the PBS (it seemed that this contained trypan blue) in the hollow that had been made in the center of the gel layer in a well of the culture plate was taken out. […] The absorbance of the diluted PBS was determined at a wave length of 550 nm. The background was determined by using a diluted PBS (concentration: ⅕) containing no trypan blue. The value that was obtained by subtracting the absorbance of the background from that of the PBS that had been taken out from the PBS in the hollow and had diluted was specified as a true absorbance of the diluted PBS. […]
# [4] = Diffusion or elution of IL-2 from IL-2-containing agarose gel to culture medium solution in a hollow (ELISA); assay type: physicochemical; details: 37° C.
# Method: Agarose (Takara, L 03 “TaKaRa”) was added to ultrapure water in a ratio of 1 gram per 100 ml of the water and was suspended (concentration: 1 w/v %). Then, to dissolve the agarose the suspension was heated at 121° C. for 15 minutes in an autoclave (Tomy Seiko, SS-320). A bottle containing the thus-obtained agarose solution was immersed in a water incubator set at 41° C. and the agarose solution was cooled to be 41° C.
# While, a powdery GIBCO™ Medium RPMI 1640 (INVITROGEN CORPORATION, Cat. No. 31800-014) (glutamine was contained) was added to ultrapure water in a ratio of 10.4 gram per 500 ml of the water and was dissolved (concentration: about twice the final concentration). This solution was sterilized by making the solution pass through a nitrocellulose filter membrane having a pore size of 0.2 μm. Thus, 2×RPMI 1640 medium solution was prepared.
# To 30 ml of this medium solution, 2-mercaptoethanol, penicillin, and streptomycin were added under an aseptic condition in such amounts as to be concentrations of 100 μM, 50 U/ml, and […], respectively. Then, to the thus-obtained solution, 6 ml of heat-inactivated bovine fetal serum was added. To the thus-obtained heat-inactivated bovine fetal serum/2×RPMI 1640 medium solution, interleukin 2 (IL-2, mouse, recombinant, SIGMA I-0523) was added in a ratio of 5 ng per ml of the solution. […]
# At appropriate time intervals after the solution was poured into the hollows, from three hollows solutions were taken out in an amount of 0.02 ml per hollow. […] Then, by using mouse IL-2 Elisa Ready-SET-Go! (e-Bioscience, Cat. No. 88-70224-77), IL-2 concentrations of the samples were determined according to the protocol stated in the instruction.
# The numerical values of the vertical axis were calculated as follows: After the solutions in the hollows were taken out, the IL-2-containing agarose gel was crushed and a solution was squeezed of the gel. For this solution an IL-2 concentration was determined in the same way as explained above. […]
molecule,measurement,setting,value
"O=c1[nH]cnc2nc[nH]c12 [hypoxantin, hypoxanthine]",compensation of inhibition against cell proliferation by aminopterin (cell number and states under microscope),[1],compensated
same,compensation of inhibition against cell proliferation by aminopterin through the salvage pathway,"[2]; [A(+), H(0.1+)] and [A(+), H(+)], 1×10^6 cells per ml, two, three and four days, hollows formed in gels",compensated
same,level of compensation of inhibition against cell proliferation by aminopterin,"[2]; conventional method (ninety-six-well culture plate), [A(+), H(0.1+)] and [A(+), H(+)]",about 40%
same,compensation of inhibition against cell proliferation by aminopterin,[2]; conventional method,scarecely compensated
same,level of compensation of inhibition against cell proliferation by aminopterin,"[2]; method of the present invention (hollow formed in a gel), [A(+), H(0.1+)] and [A(+), H(+)]",about 100%
same,compensation of inhibition against cell proliferation by aminopterin,[2]; method of the present invention,compensated with hypoxantin in the same level as that in the culture using the hypoxantin in its usual concentration
Cc1cc(-c2ccc(/N=N/c3c(S(=O)(=O)O)cc4cc(S(=O)(=O)O)cc(N)c4c3O)c(C)c2)ccc1/N=N/c1c(S(=O)(=O)O)cc2cc(S(=O)(=O)O)cc(N)c2c1O [trypan blue],concentration of trypan blue in PBS in the hollow relative to the equilibrium value,[3]; one hour after incubation started,above 50%
same,concentration of trypan blue in PBS in the hollow relative to the equilibrium value,[3]; three hours after incubation started,above 80%
B1,IL-2 concentration of the solution in the hollow relative to the equilibrium value,[4]; forty-eight hours after incubation started,about 70%
same,IL-2 concentration of the solution in the hollow relative to the equilibrium value,[4]; two hours after incubation started,about 10%
same,IL-2 concentration of the solution in the hollow relative to the equilibrium value,[4]; within six hours,at least 30%
